# Results from patent US20250042961A1, “P53 PEPTIDOMIMETIC MACROCYCLES” (MERCK SHARP & DOHME LLC, priority 2021, published 2025).
# Like-named read-outs stand apart in the source and are kept apart here. *1 amine or outer side, *2 acyl side, *3 side chain or, on linkers, in order; H or OH if unused. Where a SMILES comes first, the peptide text is derived from it. Bridges are numbered along the chain shown (N, C = ends). [ ]: non-standard residue; d: D form. ξ: configuration not given here. ξαMeNle(6-ylidene) = CC(CCCC=[*:3])(N[*:1])C(=O)[*:2]; dPhe(4-CF3) = N[C@H](Cc1ccc(C(F)(F)F)cc1)C(=O)O; dTrp(6-F) = N[C@H](Cc1c[nH]c2cc(F)ccc12)C(=O)O
# Columns and labels:
# [1] = biological target: T1, MDM2 (1-125) (Homo sapiens, UniProt Q00987); test: Competitive fluorescence anisotropy assay (FP Kd MDM2); type: binding
# T1 construct: GST (N); His6 (N); TEV cleavage site ENLYFQG (N); made in house; host or cells: Escherichia coli BL21 (DE3) Rosetta T1R
# T1 sequence (Q00987 with tags, fused parts or gaps): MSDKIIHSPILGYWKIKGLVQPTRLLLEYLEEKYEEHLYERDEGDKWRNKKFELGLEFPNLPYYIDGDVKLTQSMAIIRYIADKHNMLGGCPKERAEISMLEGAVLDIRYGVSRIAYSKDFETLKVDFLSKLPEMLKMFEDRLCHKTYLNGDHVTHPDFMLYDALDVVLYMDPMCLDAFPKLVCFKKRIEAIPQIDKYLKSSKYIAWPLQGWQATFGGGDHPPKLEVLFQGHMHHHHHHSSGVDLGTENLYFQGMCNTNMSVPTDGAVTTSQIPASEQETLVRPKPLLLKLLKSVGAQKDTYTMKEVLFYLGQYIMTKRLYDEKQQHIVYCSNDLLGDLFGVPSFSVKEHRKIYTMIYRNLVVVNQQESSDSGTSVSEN
# Excerpt: For use in the peptide binding assay, a human MDM2 1-125 sequence was cloned into a pNIC-GST vector. The TEV (tobacco etch virus) cleavage site was changed from ENLYFQS (SEQ ID NO: 13) to ENLYFQG (SEQ ID NO: 14) to give a fusion protein with the following sequence:
# [P] is the protein concentration (MDM2), [L] is the labeled peptide concentration, r is the anisotropy measured, r0 is the anisotropy of the free peptide, rb is the anisotropy of the MDM2-FAM-labeled peptide complex, Kd is the dissociation constant, [L]t is the total FAM labeled peptide concentration, and [P]t is the total MDM2 concentration. […] These values were then used to determine apparent Kd values of the respective competing ligands in subsequent competition assays in fluorescence anisotropy experiments. MDM2 and MDM4 competition experiments were performed with their respective concentrations held constant at 250 nM and 75 nM, in the presence of 50 nM of FAM-labeled 12/1. The competing molecules were then titrated against the complex of the FAM-labeled peptide and protein. Apparent Kd values were determined by fitting the experimental data to the equations shown below:
# [L]st and [L]t denote labeled ligand and total unlabeled ligand input concentrations, respectively. Kd2 is the dissociation constant of the interaction between the unlabeled ligand and the protein.
# In all competition experiments, it is assumed that [P]t>[L]st, otherwise considerable amounts of free labeled ligand would always be present and would interfere with measurements. Kd1 is the apparent Kd for the labeled peptide used and has been experimentally determined as described in the previous paragraph. The FAM-labeled peptide was dissolved in dimethyl sulfoxide (DMSO) at 1 mM and diluted into experimental buffer. Readings were carried out with an Envision Multilabel Reader (PerkinElmer). Experiments were carried out in PBS (2.7 mM KCl, 137 mM NaCl, 10 mM Na2HPO4 and 2 mM KH2PO4 (pH 7.4)) and 0.1% Tween-20 buffer. All titrations were carried out in triplicate. Curve-fitting was carried out using Prism 4.0 (GraphPad®). […] Negative control titrations of the ligands under investigation were also carried out with the fluorescently labeled peptide (in the absence of MDM2) to ensure no interactions were occurring between the ligands and the FAM-labeled peptide. […] Measurements were taken a minimum of three times (biological replicates) and values are reported as geometric means of the replicates.
# [2] = system: p53 responsive β-lactamase reporter in HCT116 cells; test: p53 beta-lactamase reporter gene cellular functional assay; type: cell-based
# Description: HCT116 cells were stably transfected with a p53 responsive β-lactamase reporter and expanded in McCoy's 5A Medium with 10% fetal bovine serum (FBS), Blasticidin, and Penicillin/Streptomycin and then transferred to 1.5 mL freezing vials and stored under liquid nitrogen in growth media containing 5% DMSO. […] The cells were then seeded into a 384-well plate at a density of 8000 cells per well. […] The final working concentration of DMSO was 0.5%. β-lactamase activity was detected using the ToxBLAzer Dual Screen (Invitrogen), as per the manufacturer's instructions. Measurements were made using the Envision multiplate reader (PerkinElmer). […] Measurements were taken a minimum of three times (biological replicates) and values are reported as geometric means of the replicates.
# [3] = system: Jump-In T-REx CHO-K1 BLA cells; test: Tetracycline beta-lactamase reporter gene cellular assay (counterscreen); type: cell-based
# Description: This assay was based on Jump-In™ T-REx™ CHO-K1 BLA cells containing a stably integrated β-lactamase under the control of an inducible cytomegalovirus (CMV) promoter. Cells were maintained in Dulbecco's Minimal Eagle Medium (DMEM) with 10% fetal bovine serum (FBS), Blasticidin, and Penicillin/Streptomycin and then transferred to 1.5 mL freezing vials and stored under liquid nitrogen in growth media containing 5% DMSO. […] Cells were seeded into a 384-well plate at a density of 4000 cells per well. […] The final working concentration of DMSO was 0.5%. β-lactamase activity was detected using the ToxBLAzer Dual Screen (Invitrogen), as per the manufacturer's instructions. Measurements were carried out using the Envision multiplate reader (PerkinElmer). Counterscreen activity was defined as the amount of β-lactamase activity induced by tetracycline. Measurements were taken a minimum of three times (biological replicates) and values are reported as geometric means of the replicates.
# [4] = Helicity stated in text (method not given); type: physicochemical; settings: aqueous solution for compound 6
# [5] = physchem
# [6] = Solubility (PBS, pH 7)
compound,measurement,setting,value
CC(=O)N[C@@H](C(=O)N[C@H](C)C(=O)N[C@H](Cc1c[nH]c2cc(F)ccc12)C(=O)N[C@H](Cc1ccc(O)cc1)C(=O)N[C@H](C)C(=O)NC1(C)CCC/C=C\CCCC(C)(C(=O)N[C@H](CC(C)C)C(=O)N[C@H](CO)C(=O)N[C@H](C)C(=O)N[C@H](Cc2ccccc2)C(=O)N[C@H](C)C(=O)N[C@H](C)C(=O)N[C@H](C)C(=O)N[C@H](C)C(N)=O)NC(=O)[C@@H](CCC(N)=O)NC(=O)[C@@H](CCC(=O)O)NC(=O)[C@@H](Cc2ccc(C(F)(F)F)cc2)NC1=O)[C@H](C)O.N (stereo partly drawn) [Compound 6] (Ac-[dT][dA][dTrp(6-F)][dY][dA][ξαMeNle(6-ylidene)][dPhe(4-CF3)][dE][dQ][ξαMeNle(6-ylidene)][dL][dS][dA][dF][dA][dA][dA][dA]-NH2; staple (Z) 6-10),Kd,[1],0.03 µM
same,EC50,"[2]; read-out: p53 activity EC50 (0% FBS, 4 h), 0% FBS, 4 h",9.65 µM
same,EC50,"[2]; read-out: p53 activity EC50 (10% FBS, 16 h), 10% FBS, 16 h",1.75 µM
same,EC50,"[3]; read-out: Counter screen EC50 (0% FBS, 4 h), 0% FBS, 4 h",> 50 µM
same,EC50,"[3]; read-out: Counter screen EC50 (10% FBS, 16 h), 10% FBS, 16 h",> 50 µM
same,helicity,[4],about 65%
same,chromatographic logD,[5],3.06
same,solubility,[6],146 µM
